PubChem BioAssay (NCI)
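Each compound was tested at five concentrations against cells in 96-well plates for 48 hours. GI50 is the concentration that inhibits growth by half. TGI is the concentration that stops growth completely.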

Legend:
Test in all cases: inhibition of tumour cell growth, NCI panel, 48 h
MOLT-4 leukemia = system: MOLT-4 leukemia
KM12 colon = system: KM12 colon
NCI-H226 lung = system: NCI-H226 lung
UACC-257 melanoma = system: UACC-257 melanoma
RXF 393 renal = system: RXF 393 renal
HT29 colon = system: HT29 colon
HCT-15 colon = system: HCT-15 colon
NCI-H522 lung = system: NCI-H522 lung
A549 NSCLC = system: A549 NSCLC
OVCAR-3 ovarian = system: OVCAR-3 ovarian
T-47D breast = system: T-47D breast
SNB-75 CNS = system: SNB-75 CNS
UO-31 renal = system: UO-31 renal
SK-MEL-2 melanoma = system: SK-MEL-2 melanoma
MCF7 breast = system: MCF7 breast
K-562 leukemia = system: K-562 leukemia
M14 melanoma = system: M14 melanoma
SF-295 CNS = system: SF-295 CNS
DU-145 prostate = system: DU-145 prostate
HCC-2998 colon = system: HCC-2998 colon
SF-268 CNS = system: SF-268 CNS
U251 CNS = system: U251 CNS
SNB-19 CNS = system: SNB-19 CNS
OVCAR-8 ovarian = system: OVCAR-8 ovarian
MDA-MB-435 = system: MDA-MB-435
CAKI-1 renal = system: CAKI-1 renal
NCI-H460 lung = system: NCI-H460 lung
MDA-MB-231 breast = system: MDA-MB-231 breast
SR leukemia = system: SR leukemia
SF-539 CNS = system: SF-539 CNS
MALME-3M melanoma = system: MALME-3M melanoma
SK-MEL-5 melanoma = system: SK-MEL-5 melanoma
786-0 renal = system: 786-0 renal
HS 578T breast = system: HS 578T breast
HCT-116 colon = system: HCT-116 colon
A498 renal = system: A498 renal
UACC-62 melanoma = system: UACC-62 melanoma
PC-3 prostate = system: PC-3 prostate
HOP-92 NSCLC = system: HOP-92 NSCLC
SK-MEL-28 melanoma = system: SK-MEL-28 melanoma
COLO 205 colon = system: COLO 205 colon
CCRF-CEM leukemia = system: CCRF-CEM leukemia
LOX IMVI melanoma = system: LOX IMVI melanoma
RPMI-8226 leukemia = system: RPMI-8226 leukemia
SK-OV-3 ovarian = system: SK-OV-3 ovarian
HOP-62 NSCLC = system: HOP-62 NSCLC
HL-60(TB) leukemia = system: HL-60(TB) leukemia
SN12C renal = system: SN12C renal
OVCAR-4 ovarian = system: OVCAR-4 ovarian
NCI/ADR-RES ovarian = system: NCI/ADR-RES ovarian
IGROV1 ovarian = system: IGROV1 ovarian
ACHN renal = system: ACHN renal
BT-549 breast = system: BT-549 breast
NCI-H23 lung = system: NCI-H23 lung
SW-620 colon = system: SW-620 colon
OVCAR-5 ovarian = system: OVCAR-5 ovarian
TK-10 renal = system: TK-10 renal
EKVX NSCLC = system: EKVX NSCLC

## NC(=O)NC(=O)CI
MOLT-4 leukemia
  GI50: 1.74 µM
  TGI: 4.13 µM
KM12 colon
  GI50: 18.2 µM
  TGI: 35.5 µM
NCI-H226 lung
  GI50: 6.79 µM
  TGI: 28.2 µM
UACC-257 melanoma
  GI50: 3.96 µM
  TGI: 13.4 µM
RXF 393 renal
  GI50: 5.97 µM
  TGI: 18.3 µM
HT29 colon
  GI50: 8.97 µM
  TGI: 25.1 µM
HCT-15 colon
  GI50: 1.68 µM
  TGI: 3.55 µM
NCI-H522 lung
  GI50: 0.208 µM
  TGI: 0.475 µM
A549 NSCLC
  GI50: 18.8 µM
  TGI: 37.4 µM
OVCAR-3 ovarian
  GI50: 1.92 µM
  TGI: 3.45 µM
T-47D breast
  GI50: 1.72 µM
  TGI: 3.9 µM
SNB-75 CNS
  GI50: 15.2 µM
  TGI: 29.4 µM
UO-31 renal
  GI50: 1.68 µM
  TGI: 3.19 µM
SK-MEL-2 melanoma
  GI50: 5.78 µM
  TGI: 18.7 µM
MCF7 breast
  GI50: 3.33 µM
  TGI: 16.6 µM
K-562 leukemia
  GI50: 1.03 µM
  TGI: 3.6 µM
M14 melanoma
  GI50: 5.12 µM
  TGI: 17.4 µM
SF-295 CNS
  GI50: 23.9 µM
  TGI: > 57.7 µM
DU-145 prostate
  GI50: 17.7 µM
  TGI: 32.3 µM
HCC-2998 colon
  GI50: 18.5 µM
  TGI: 35.1 µM
SF-268 CNS
  GI50: 16.2 µM
  TGI: 36.4 µM
U251 CNS
  GI50: 15.3 µM
  TGI: 29.3 µM
SNB-19 CNS
  GI50: 34 µM
  TGI: 97.7 µM
OVCAR-8 ovarian
  GI50: 3.23 µM
  TGI: 11.9 µM
MDA-MB-435
  GI50: 4.02 µM
  TGI: 15.9 µM
CAKI-1 renal
  GI50: 2.32 µM
  TGI: 5.51 µM
NCI-H460 lung
  GI50: 18.5 µM
  TGI: 37.3 µM
MDA-MB-231 breast
  GI50: 6.99 µM
  TGI: 19.9 µM
SR leukemia
  GI50: 2.52 µM
  TGI: 7.69 µM
SF-539 CNS
  GI50: 9.5 µM
  TGI: 23 µM
MALME-3M melanoma
  GI50: 1.42 µM
  TGI: 3.32 µM
SK-MEL-5 melanoma
  GI50: 12.9 µM
  TGI: 26.4 µM
786-0 renal
  GI50: 4.7 µM
  TGI: 13.5 µM
HS 578T breast
  GI50: 15.8 µM
  TGI: 47.8 µM
HCT-116 colon
  GI50: 1.39 µM
  TGI: 3.12 µM
A498 renal
  GI50: 15 µM
  TGI: 31.7 µM
UACC-62 melanoma
  GI50: 5.38 µM
  TGI: 18.7 µM
PC-3 prostate
  GI50: 12.6 µM
  TGI: 26.8 µM
HOP-92 NSCLC
  GI50: 1.65 µM
  TGI: 3.89 µM
SK-MEL-28 melanoma
  GI50: 13 µM
  TGI: 26.2 µM
COLO 205 colon
  GI50: 1.91 µM
  TGI: 3.73 µM
CCRF-CEM leukemia
  GI50: 0.757 µM
  TGI: 2.31 µM
LOX IMVI melanoma
  GI50: 1.08 µM
  TGI: 2.71 µM
RPMI-8226 leukemia
  GI50: 5.38 µM
  TGI: 13.1 µM
SK-OV-3 ovarian
  GI50: 27.4 µM
  TGI: > 56.2 µM
HOP-62 NSCLC
  GI50: 20.5 µM
  TGI: 43.1 µM
HL-60(TB) leukemia
  GI50: 1.94 µM
  TGI: 4.02 µM
SN12C renal
  GI50: 6.63 µM
  TGI: 19.2 µM
OVCAR-4 ovarian
  GI50: 1.77 µM
  TGI: 4.08 µM
NCI/ADR-RES ovarian
  GI50: 18.7 µM
  TGI: 41.9 µM
IGROV1 ovarian
  GI50: 3.67 µM
  TGI: 11.5 µM
ACHN renal
  GI50: 1.78 µM
  TGI: 3.39 µM
BT-549 breast
  GI50: 4.28 µM
  TGI: 11.3 µM
NCI-H23 lung
  GI50: 5.75 µM
  TGI: 21 µM
SW-620 colon
  GI50: 1.68 µM
  TGI: 3.57 µM
OVCAR-5 ovarian
  GI50: 11.3 µM
  TGI: 26.1 µM

## Cc1c2c(nn1-c1ccc(S/N=C3\SCC(=O)CN3c3ccccc3)cc1)-c1ccccc1CC2
MOLT-4 leukemia
  GI50: 19.6 µM
  TGI: > 50 µM
TK-10 renal
  GI50: > 50 µM
  TGI: > 50 µM
KM12 colon
  GI50: 46.5 µM
  TGI: > 50 µM
NCI-H226 lung
  GI50: 9.75 µM
  TGI: 27 µM
UACC-257 melanoma
  GI50: 45.3 µM
  TGI: > 50 µM
RXF 393 renal
  GI50: 31.5 µM
  TGI: > 50 µM
HT29 colon
  GI50: 34.5 µM
  TGI: > 50 µM
HCT-15 colon
  GI50: 21.2 µM
  TGI: > 50 µM
NCI-H522 lung
  GI50: 15.4 µM
  TGI: > 50 µM
A549 NSCLC
  GI50: > 50 µM
  TGI: > 50 µM
OVCAR-3 ovarian
  GI50: > 50 µM
  TGI: > 50 µM
T-47D breast
  GI50: 24.7 µM
  TGI: > 50 µM
SNB-75 CNS
  GI50: > 50 µM
  TGI: > 50 µM
UO-31 renal
  GI50: 28.4 µM
  TGI: > 50 µM
SK-MEL-2 melanoma
  GI50: 18.2 µM
  TGI: 47 µM
MCF7 breast
  GI50: 7.79 µM
  TGI: 36.7 µM
K-562 leukemia
  GI50: 17.6 µM
  TGI: > 50 µM
M14 melanoma
  GI50: 13.4 µM
  TGI: 43.7 µM
SF-295 CNS
  GI50: > 50 µM
  TGI: > 50 µM
DU-145 prostate
  GI50: 43.9 µM
  TGI: > 50 µM
SF-268 CNS
  GI50: 20.2 µM
  TGI: > 50 µM
U251 CNS
  GI50: 21.1 µM
  TGI: > 50 µM
SNB-19 CNS
  GI50: > 50 µM
  TGI: > 50 µM
OVCAR-8 ovarian
  GI50: > 50 µM
  TGI: > 50 µM
MDA-MB-435
  GI50: 16.8 µM
  TGI: > 50 µM
CAKI-1 renal
  GI50: 18.1 µM
  TGI: > 50 µM
EKVX NSCLC
  GI50: > 50 µM
  TGI: > 50 µM
NCI-H460 lung
  GI50: 15.2 µM
  TGI: > 50 µM
MDA-MB-231 breast
  GI50: 15.4 µM
  TGI: > 50 µM
SR leukemia
  GI50: 1.88 µM
  TGI: > 50 µM
SF-539 CNS
  GI50: 22.4 µM
  TGI: > 50 µM
MALME-3M melanoma
  GI50: > 50 µM
  TGI: > 50 µM
SK-MEL-5 melanoma
  GI50: 8.11 µM
  TGI: 22.3 µM
786-0 renal
  GI50: 13.3 µM
  TGI: > 50 µM
HS 578T breast
  GI50: 15.5 µM
  TGI: > 50 µM
HCT-116 colon
  GI50: 6.5 µM
  TGI: 15.9 µM
UACC-62 melanoma
  GI50: 16 µM
  TGI: > 50 µM
PC-3 prostate
  GI50: 20.4 µM
  TGI: > 50 µM
HOP-92 NSCLC
  GI50: > 50 µM
  TGI: > 50 µM
SK-MEL-28 melanoma
  GI50: 28.5 µM
  TGI: > 50 µM
COLO 205 colon
  GI50: > 50 µM
  TGI: > 50 µM
CCRF-CEM leukemia
  GI50: 28.1 µM
  TGI: > 50 µM
LOX IMVI melanoma
  GI50: 5.59 µM
  TGI: 34.2 µM
RPMI-8226 leukemia
  GI50: 7.85 µM
  TGI: > 50 µM
SK-OV-3 ovarian
  GI50: 43.3 µM
  TGI: > 50 µM
HOP-62 NSCLC
  GI50: 12.7 µM
  TGI: 47.7 µM
HL-60(TB) leukemia
  GI50: > 50 µM
  TGI: > 50 µM
SN12C renal
  GI50: 17.8 µM
  TGI: > 50 µM
OVCAR-4 ovarian
  GI50: 37.6 µM
  TGI: > 50 µM
NCI/ADR-RES ovarian
  GI50: 14.5 µM
  TGI: > 50 µM
IGROV1 ovarian
  GI50: 8.31 µM
  TGI: 21.4 µM
ACHN renal
  GI50: 24.1 µM
  TGI: > 50 µM
BT-549 breast
  GI50: 11.1 µM
  TGI: 34.5 µM
NCI-H23 lung
  GI50: 32.3 µM
  TGI: > 50 µM
SW-620 colon
  GI50: 19.1 µM
  TGI: > 50 µM
OVCAR-5 ovarian
  GI50: > 50 µM
  TGI: > 50 µM
